# Source: PubChem BioAssay (NCI)
#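 Protocol summary: plate cells (96-well), add compound at 5 concentrations, incubate 48 h, interpolate endpoints linearly. At the GI50, growth is halved. The concentration for full growth arrest is given as TGI.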
# Tests used:
# Test in all cases: NCI tumour cell line growth inhibition, 48 h
# CAKI-1 renal = tested on: CAKI-1 renal
# HCC-2998 colon = tested on: HCC-2998 colon
# LOX IMVI melanoma = tested on: LOX IMVI melanoma
# M14 melanoma = tested on: M14 melanoma
# MOLT-4 leukemia = tested on: MOLT-4 leukemia
# NCI/ADR-RES ovarian = tested on: NCI/ADR-RES ovarian
# SN12C renal = tested on: SN12C renal
# SNB-75 CNS = tested on: SNB-75 CNS
# SW-620 colon = tested on: SW-620 colon
# BT-549 breast = tested on: BT-549 breast
Structure (SMILES),GI50 (CAKI-1 renal),TGI (CAKI-1 renal),GI50 (HCC-2998 colon),TGI (HCC-2998 colon),GI50 (LOX IMVI melanoma),TGI (LOX IMVI melanoma),GI50 (M14 melanoma),TGI (M14 melanoma),GI50 (MOLT-4 leukemia),TGI (MOLT-4 leukemia),GI50 (NCI/ADR-RES ovarian),TGI (NCI/ADR-RES ovarian),GI50 (SN12C renal),TGI (SN12C renal),GI50 (SNB-75 CNS),TGI (SNB-75 CNS),GI50 (SW-620 colon),TGI (SW-620 colon),TGI (BT-549 breast)
O=C(Nc1ccc(-n2cc(-c3ccncc3)c(-c3ccc(O)c(Cl)c3)n2)cc1)Nc1cccc(Cl)c1Cl,> 32.5 µM,> 32.5 µM,18.9 µM,> 32.5 µM,3.45 µM,> 32.5 µM,3.16 µM,> 32.5 µM,3.7 µM,> 32.5 µM,> 32.5 µM,> 32.5 µM,19.9 µM,> 32.5 µM,5.51 µM,> 32.5 µM,20.6 µM,> 32.5 µM,–
COc1ccccc1N1CCN(CCCNC(=O)c2cc(Cl)c(N)c(Cl)c2)CC1,–,–,–,41.6 µM,–,–,–,53.1 µM,–,92.6 µM,–,> 100 µM,–,> 100 µM,–,> 100 µM,–,> 100 µM,–
COc1cc(CNc2nc3cc(C(F)(F)F)ccc3nc2-c2ccccc2)cc(OC)c1OC,–,> 100 µM,–,52.4 µM,–,> 100 µM,–,> 100 µM,–,> 100 µM,–,81.8 µM,–,> 100 µM,–,44 µM,–,> 100 µM,–
CC(C)(C)OC(=O)C1C(=O)NC(=O)CC1C(COCc1ccccc1)OCc1ccccc1 (configuration not stated),–,> 100 µM,–,47.7 µM,–,34.7 µM,–,34.8 µM,–,52.9 µM,–,–,–,–,–,–,–,65.1 µM,55.6 µM
O=C([CH-]C(=O)c1ccccc1)c1ccccc1.O=C([CH-]C(=O)c1ccccc1)c1ccccc1.[O]=[U+2]=[O],3.79 µM,15.6 µM,–,–,2.7 µM,> 100 µM,2.35 µM,6.42 µM,2.57 µM,27.3 µM,–,–,3.33 µM,18.7 µM,–,–,3.15 µM,> 100 µM,–
O=C(CCc1cccc(O)c1)NCCCNC(=O)CCc1cccc(O)c1,–,> 100 µM,–,> 100 µM,–,> 100 µM,–,> 100 µM,–,> 100 µM,–,> 100 µM,–,> 100 µM,–,–,–,> 100 µM,> 100 µM
C[C@]1(S(=O)(=O)c2ccccc2)C[C@H]2N(Cc3ccccc3)[C@@H]1CCC21OCCO1,–,> 100 µM,–,–,–,> 100 µM,–,> 100 µM,–,> 100 µM,–,> 100 µM,–,> 100 µM,–,> 100 µM,–,> 100 µM,> 100 µM
Nc1nc(Nc2ccc(Cl)cc2)sc1C(=O)c1cccs1,–,–,–,–,–,> 100 µM,–,> 100 µM,–,> 100 µM,–,> 100 µM,–,50.6 µM,–,–,–,> 100 µM,> 100 µM
O=C(O)c1ccc2c(c1)CC1(C2)Cc2cc3c(cc2C1=O)CCC3 (configuration not stated),–,–,–,> 100 µM,–,> 100 µM,–,> 100 µM,–,> 100 µM,–,> 100 µM,–,> 100 µM,–,> 100 µM,–,> 100 µM,> 100 µM
C=C(C)[C@@]1(O[Si](C)(C)C)CCCC[C@@H]1CC(Sc1ccccc1)Sc1ccccc1,–,25.8 µM,–,29.8 µM,–,37.2 µM,–,31.3 µM,–,25.7 µM,–,32 µM,–,–,–,25.7 µM,–,30.2 µM,–
CCN1C(=O)N(CC)C2Nn3c(s/c(=C4\C(=O)N(C)c5ccccc54)c3=O)=NC21 (configuration not stated),1.05 µM,> 100 µM,–,–,4.82 µM,> 100 µM,2.41 µM,> 100 µM,3.92 µM,> 100 µM,1.95 µM,> 100 µM,–,–,–,–,1.52 µM,> 100 µM,–
CCCCC#CS(=O)(=O)C(F)(F)F,–,> 100 µM,–,> 31.6 µM,–,> 100 µM,–,–,–,> 100 µM,–,> 100 µM,–,> 100 µM,–,98.3 µM,–,> 100 µM,–
O=c1n(Cc2ccccc2)c(=O)n2c(=O)n(Cc3ccccc3)c(=O)n12,–,> 100 µM,–,> 100 µM,–,> 100 µM,–,–,–,–,–,> 100 µM,–,> 100 µM,–,> 100 µM,–,> 100 µM,> 100 µM
CC1=CC(=O)CC2(C)CCC(C(C)CC(=O)CC(C)C)CC12 (configuration not stated),–,30.2 µM,–,–,–,34.8 µM,–,32.1 µM,–,40.6 µM,–,> 100 µM,–,32.6 µM,–,> 100 µM,–,46 µM,–
O=C(CCCN1CCC2(CC1)C(=NC1CCCCC1)NC(=O)N2c1ccccc1)c1ccc(F)cc1,–,> 100 µM,–,37.7 µM,–,30 µM,–,32.8 µM,–,57.2 µM,–,51.4 µM,–,40.7 µM,–,56 µM,–,> 100 µM,–
O=C(c1ccccc1)N1C(=S)N=C(Nc2ccccc2)C1=Nc1ccccc1,–,> 100 µM,–,> 100 µM,–,> 100 µM,–,–,–,> 100 µM,–,> 100 µM,–,> 100 µM,–,> 100 µM,–,> 100 µM,–
CCOC(=O)C(C)c1nc2c(Cl)c3ncccc3cc2[nH]c1=O (configuration not stated),–,> 100 µM,–,–,–,> 100 µM,–,> 100 µM,–,> 100 µM,–,> 100 µM,–,> 100 µM,–,> 100 µM,–,> 100 µM,> 100 µM
Nc1ccc2nc3n(c2c1)C(=O)c1ccccc1-3,–,> 100 µM,–,> 100 µM,–,–,–,> 100 µM,–,> 100 µM,–,> 100 µM,–,> 100 µM,–,> 100 µM,–,> 100 µM,> 100 µM
OC1(c2ccc(Cl)cc2)c2ccc(CN3CCCC3)cc2C2=NCCN21 (configuration not stated),–,31.7 µM,–,–,–,29.1 µM,–,12.8 µM,–,41.9 µM,–,> 100 µM,–,31.7 µM,–,18.5 µM,–,26.5 µM,21.3 µM
CC12CC1C(c1cccc([N+](=O)[O-])c1)(c1cccc([N+](=O)[O-])c1)N=N2 (configuration not stated),–,–,–,> 100 µM,–,27.8 µM,–,> 100 µM,–,> 100 µM,–,59.3 µM,–,55 µM,–,> 100 µM,–,> 100 µM,45.8 µM
COc1cc([C@@H]2c3cc4c(cc3[C@@H](c3c(O)cc(O)c5c3O[C@H](c3ccc(O)c(O)c3)[C@@H](O)C5)[C@H]3COC(=O)[C@H]23)OCO4)cc(OC)c1O,–,> 100 µM,–,> 100 µM,–,> 100 µM,–,> 100 µM,–,> 100 µM,–,> 100 µM,–,> 100 µM,–,–,–,> 100 µM,> 100 µM
COc1ccc(N=NC(=Nc2ccc(F)cc2)c2ccc(N(CCC#N)CCC#N)cc2)cc1,–,> 100 µM,–,51.5 µM,–,–,–,> 100 µM,–,> 100 µM,–,> 100 µM,–,> 100 µM,–,84.1 µM,–,> 100 µM,70.8 µM
